Experimental data from publication PMC9176062, “Phase Ib study of combinations of avadomide (CC‐122), CC‐223, CC‐292, and rituximab in patients with relapsed/refractory diffuse large B‐cell lymphoma” (EJHaem, 2022).

Key:
patients with R/R DLBCL = test: Treatment duration, modification, and exposure; format: in vivo; conditions: for patients with dose reductions of the drug: all patients who received the drug
Protocol: CC‐122 hydrochloride, referred to here as CC‐122, as an active pharmaceutical ingredient in capsule (AIC) formulation, was administered orally once daily (QD). An alternate intermittent schedule of CC‐122 QD for five of every seven consecutive days (5/7), which improved tolerability and reduced the frequency and severity of neutropenia in a study of CC‐122 monotherapy in DLBCL, was also explored. CC‐292 was administered orally twice daily (BID) and CC‐223 was administered orally QD. Rituximab was administered on day 8 of cycle 1, day 1 of cycles 2–6, and day 1 of every third cycle thereafter. Patients in arm A received CC‐122 and CC‐223 with or without rituximab (starting at CC‐122 2 mg QD and CC‐223 20 mg QD), patients in arm B received CC‐122 plus CC‐292 with or without rituximab (starting at CC‐122 2 mg QD and CC‐292 500 mg BID), patients in arm C were treated with CC‐223 and CC‐292 (starting at CC‐223 20 mg QD and CC‐292 500 mg BID), and those in arm D received CC‐122 plus rituximab (starting at CC‐122 2 mg QD). In arm D, a CC‐122 3 mg formulated capsule was introduced with the same strength as CC‐122 3 mg AIC. Each dose level was cleared before the next was started. If unacceptable toxicity occurred at the initial dose level, dose reductions for CC‐122 (1.5 mg QD and 1 mg QD) and CC‐223 (15 mg QD) were allowed; no starting dose reductions for CC‐292 were planned. For arm A, the Safety Review Committee (SRC) determined which of the two drugs in the doublet to reduce. For arms B and D, the CC‐122 dose was reduced and for arm C, the CC‐223 dose was reduced. Assignment of patients to study arms was at the discretion of the investigator and based on slot availability per the study design.
Patients who experienced dose‐limiting toxicity (DLT) after receiving ≥1 dose of study treatment or those who received ≥80% of planned doses of CC‐122, CC‐223, CC‐292, and rituximab during cycle 1 without experiencing a DLT were considered DLT‐evaluable. If zero out of ≥3 or ≤1 out of six evaluable patients in a cohort experienced a DLT during cycle 1 in parallel dose cohorts, then dose escalation could occur. DLTs are defined in the Supplementary Materials; individual investigators performed response assessments and determined DLTs. The NTD was defined as the dose level at which ≥2 of six evaluable patients in a cohort experienced a DLT during cycle 1. […] During cycle 1, any adverse event (AE) that led to dose reduction was considered a DLT. Patients could resume CC‐122 at a reduced dose only if they recovered to grade ≤1 within 14 days of dose interruption; two dose reductions were allowed before the patient was withdrawn from the study. Dose reductions were permitted for CC‐122, CC‐223, and CC‐292; no dose reductions were allowed for rituximab, but treatment could be discontinued at the discretion of the investigator. […] For arms A, B, and D, CC‐122 dosing was modified to the intermittent 5/7‐day schedule based on SRC review and escalated until the MTD/RP2D was established. Treatment was given until disease progression, unacceptable toxicity, or patient/physician decision to withdraw consent.
^aTreatment duration defined as date of last derived dose – date of first dose + 1.
^bDefined as the ratio of actual dose received to planned dose over the treatment period.

[1] = Steady‐state plasma pharmacokinetics; format: in vivo; conditions: human, oral, CC‐223 + CC‐292 (arm C dose level 2, day 15); for clearance: read-out: apparent plasma clearance (converted); for Vd: read-out: mean apparent volume of distribution; for Tmax: read-out: median Tmax; for half-life: read-out: terminal half‐life (converted)
Protocol: (§1) AEs were assessed according to the National Cancer Institute Common Terminology Criteria for AEs, version 4.03, up to 28 days after the last treatment. Blood samples for PK analysis were collected on days 15 to 28, predose, and at 1.5 and 3 h post‐dose on days 1 and 15 of cycle 1 for all dose cohorts. Additional blood samples were collected on day 15 from patients in dose level 2 of arm C to examine CC‐223 and CC‐292 steady‐state PK. Pharmacodynamic biomarkers of each novel agent were explored at baseline and cycle 1, day 1 (pre‐dose, and at 1.5 and 3 h) and cycle 1, day 15 (pre‐dose, and at 1.5 and 3 h), including cereblon modulation substrates in B and T cells in patients treated with CC‐122 and mTOR signaling pathway biomarkers (e.g., p4EBP1 and pAKT) in patients treated with CC‐223. Tumor assessments were performed at screening and at the end of even‐numbered cycles through cycle 6, then every three cycles through cycle 12, and every 6 months thereafter. Responses were assessed by the investigator per International Working Group 2007 criteria.
Safety analyses were performed on all patients who received ≥1 dose of study treatment (safety population). The PK population comprised all patients who took ≥1 dose of study treatment and had ≥1 measured drug concentration. […] The biomarker‐evaluable population comprised all patients who took ≥1 dose of study treatment and had ≥1 pharmacodynamic assessment. Safety and efficacy analyses were based on the safety population except where noted (PK and biomarkers). PK parameters were calculated using actual times relative to the most recent administration. The median duration of response (DOR) and median PFS were calculated per the Kaplan‐Meier method.
FIGURE S3 Summary of pharmacokinetic parameters and mean plasma concentration-time profiles of (A) CC-223 and (B) CC-292. Summary of pharmacokinetic parameters and mean plasma concentration-time profiles of (A) CC-223 and (B) CC-292. […] Data are geometric means (CV%) except for Tmax, for which medians (min, max) are presented.

p4EBP1 = test: mTOR signaling pathway biomarker p4EBP1 in blood; format: in vivo, human
Protocol: as §1
(§2) Safety analyses were performed on all patients who received ≥1 dose of study treatment (safety population). The PK population comprised all patients who took ≥1 dose of study treatment and had ≥1 measured drug concentration. […] The biomarker‐evaluable population comprised all patients who took ≥1 dose of study treatment and had ≥1 pharmacodynamic assessment. […] PK parameters were calculated using actual times relative to the most recent administration. The median duration of response (DOR) and median PFS were calculated per the Kaplan‐Meier method.
(§3) Per cent change from baseline in Aiolos in CD3+ T cells (A) and CD19+ B cells (B) and in p4EBP1 (C) and pAKT (D) at 3 h post‐dose on day 1 of cycle 1 (biomarker‐evaluable population). The change in Aiolos expression in CD3+ T cells and CD19+ B cells was calculated within each avadomide‐ and CC‐223‐containing arm. *p ≤ 0.05 versus baseline; **p ≤ 0.01 versus baseline; ***p ≤ 0.001 versus baseline; DL, dose level; MEFL, molecules of equivalent fluorescence label; NS, not significant

pAKT = test: mTOR signaling pathway biomarker pAKT in blood; format: in vivo, human
Protocol: as §1, §2, §3

R/R DLBCL = conditions: cited from earlier work; for CR rates: monotherapy, third‐line setting
[2] = Overall (all arms with the drug)
[3] = arm A (with CC‐122), 20 mg of CC‐223, 3 h post‐dose vs baseline
[4] = arm C (with CC‐292), 20 mg of CC‐223, 3 h post‐dose
[5] = arm C (with CC‐292), CC‐223 15 mg
[6] = patients with a complete response

CO[C@H]1CC[C@H](N2C(=O)CNc3ncc(-c4ccc(C(C)(C)O)nc4)nc32)CC1 [CC‐223]
≥1 dose interruption (patients with R/R DLBCL; Arm A (Avadomide + CC-223 ± R)): 25 (80.6) n (%) | ≥1 dose interruption: Adverse event (patients with R/R DLBCL; Arm A (Avadomide + CC-223 ± R)): 23 (74.2) n (%) | ≥1 dose interruption: Other (patients with R/R DLBCL; Arm A (Avadomide + CC-223 ± R)): 10 (32.3) n (%) | ≥1 dose interruption: Per protocol (patients with R/R DLBCL; Arm A (Avadomide + CC-223 ± R)): 1 (3.2) n (%) | ≥1 dose reduction (patients with R/R DLBCL; Arm A (Avadomide + CC-223 ± R)): 10 (32.3) n (%) | ≥1 dose reduction: Adverse event (patients with R/R DLBCL; Arm A (Avadomide + CC-223 ± R)): 7 (22.6) n (%) | ≥1 dose reduction: Other (patients with R/R DLBCL; Arm A (Avadomide + CC-223 ± R)): 2 (6.5) n (%) | ≥1 dose reduction: Per protocol (patients with R/R DLBCL; Arm A (Avadomide + CC-223 ± R)): 0 n (%) | ≥1 dose interruption (patients with R/R DLBCL; Arm C (CC-292 + CC-223)): 9 (64.3) n (%) | ≥1 dose interruption: Adverse event (patients with R/R DLBCL; Arm C (CC-292 + CC-223)): 8 (57.1) n (%) | ≥1 dose interruption: Other (patients with R/R DLBCL; Arm C (CC-292 + CC-223)): 3 (21.4) n (%) | ≥1 dose interruption: Per protocol (patients with R/R DLBCL; Arm C (CC-292 + CC-223)): 1 (7.1) n (%) | ≥1 dose reduction (patients with R/R DLBCL; Arm C (CC-292 + CC-223)): 1 (7.1) n (%) | ≥1 dose reduction: Adverse event (patients with R/R DLBCL; Arm C (CC-292 + CC-223)): 1 (7.1) n (%) | ≥1 dose reduction: Other (patients with R/R DLBCL; Arm C (CC-292 + CC-223)): 0 n (%) | ≥1 dose reduction: Per protocol (patients with R/R DLBCL; Arm C (CC-292 + CC-223)): 0 n (%) | ≥1 dose interruption (patients with R/R DLBCL; [2]): 34 (75.6) n (%) | ≥1 dose interruption: Adverse event (patients with R/R DLBCL; [2]): 31 (68.9) n (%) | ≥1 dose interruption: Other (patients with R/R DLBCL; [2]): 13 (28.9) n (%) | ≥1 dose interruption: Per protocol (patients with R/R DLBCL; [2]): 2 (4.4) n (%) | ≥1 dose reduction (patients with R/R DLBCL; [2]): 11 (24.4) n (%) | ≥1 dose reduction: Adverse event (patients with R/R DLBCL; [2]): 8 (17.8) n (%) | ≥1 dose reduction: Other (patients with R/R DLBCL; [2]): 2 (4.4) n (%) | ≥1 dose reduction: Per protocol (patients with R/R DLBCL; [2]): 0 n (%) | patients with dose reductions of the drug (patients with R/R DLBCL): 24.4% | clearance [1]: ~405 mL/min | Vd [1]: 127 L | Tmax [1]: 1.5 h | half-life [1]: ~3.6 h | median reduction in p4EBP1 levels (p4EBP1; [3]): approximately 30% | increase of p4EBP1 levels from baseline (p4EBP1; [4]): approximately 8% | reduction of p4EBP1 (p4EBP1; [5]): approximately 30% | median reduction in pAKT levels (pAKT; [3]): ~70% | median reduction of pAKT levels (pAKT; [4]): approximately 50% | reduction of pAKT levels (pAKT; [5]): approximately 50%

C=CC(=O)Nc1cccc(Nc2nc(Nc3ccc(OCCOC)cc3)ncc2F)c1 [CC‐292]
≥1 dose interruption (patients with R/R DLBCL; Arm B (Avadomide + CC-292 ± R)): 14 (51.9) n (%) | ≥1 dose interruption: Adverse event (patients with R/R DLBCL; Arm B (Avadomide + CC-292 ± R)): 5 (18.5) n (%) | ≥1 dose interruption: Other (patients with R/R DLBCL; Arm B (Avadomide + CC-292 ± R)): 8 (29.6) n (%) | ≥1 dose interruption: Per protocol (patients with R/R DLBCL; Arm B (Avadomide + CC-292 ± R)): 1 (3.7) n (%) | ≥1 dose reduction (patients with R/R DLBCL; Arm B (Avadomide + CC-292 ± R)): 12 (44.4) n (%) | ≥1 dose reduction: Adverse event (patients with R/R DLBCL; Arm B (Avadomide + CC-292 ± R)): 5 (18.5) n (%) | ≥1 dose reduction: Other (patients with R/R DLBCL; Arm B (Avadomide + CC-292 ± R)): 8 (29.6) n (%) | ≥1 dose reduction: Per protocol (patients with R/R DLBCL; Arm B (Avadomide + CC-292 ± R)): 1 (3.7) n (%) | ≥1 dose interruption (patients with R/R DLBCL; Arm C (CC-292 + CC-223)): 6 (42.9) n (%) | ≥1 dose interruption: Adverse event (patients with R/R DLBCL; Arm C (CC-292 + CC-223)): 3 (21.4) n (%) | ≥1 dose interruption: Other (patients with R/R DLBCL; Arm C (CC-292 + CC-223)): 1 (7.1) n (%) | ≥1 dose interruption: Per protocol (patients with R/R DLBCL; Arm C (CC-292 + CC-223)): 1 (7.1) n (%) | ≥1 dose reduction (patients with R/R DLBCL; Arm C (CC-292 + CC-223)): 4 (28.6) n (%) | ≥1 dose reduction: Adverse event (patients with R/R DLBCL; Arm C (CC-292 + CC-223)): 3 (21.4) n (%) | ≥1 dose reduction: Other (patients with R/R DLBCL; Arm C (CC-292 + CC-223)): 1 (7.1) n (%) | ≥1 dose reduction: Per protocol (patients with R/R DLBCL; Arm C (CC-292 + CC-223)): 1 (7.1) n (%) | ≥1 dose interruption (patients with R/R DLBCL; [2]): 20 (48.8) n (%) | ≥1 dose interruption: Adverse event (patients with R/R DLBCL; [2]): 8 (19.5) n (%) | ≥1 dose interruption: Other (patients with R/R DLBCL; [2]): 9 (22.0) n (%) | ≥1 dose interruption: Per protocol (patients with R/R DLBCL; [2]): 2 (4.9) n (%) | ≥1 dose reduction (patients with R/R DLBCL; [2]): 16 (39.0) n (%) | ≥1 dose reduction: Adverse event (patients with R/R DLBCL; [2]): 8 (19.5) n (%) | ≥1 dose reduction: Other (patients with R/R DLBCL; [2]): 9 (22.0) n (%) | ≥1 dose reduction: Per protocol (patients with R/R DLBCL; [2]): 2 (4.9) n (%) | patients with dose reductions of the drug (patients with R/R DLBCL): 39.0% | clearance [1]: ~1170 mL/min | Vd [1]: 334 L | Tmax [1]: 1.5 h | half-life [1]: ~3.3 h

O=C(/C=C\n1cnc(-c2cc(C(F)(F)F)cc(C(F)(F)F)c2)n1)NNc1cnccn1 [selinexor, reference compound]
CR rates (R/R DLBCL): 12%

axicabtagene ciloleucel
24‐month PFS (R/R DLBCL; [6]): 72%

lisocabtagene maraleucel
estimated 12‐month PFS rate (R/R DLBCL; [6]): 65%

loncastuximab tesirine [reference compound]
CR rates (R/R DLBCL): 24%

tisagenlecleucel
36‐month PFS (R/R DLBCL; patients with a complete response at 3 months): 70%
